Test results from patent US8435939B2, “Polypeptide anti-HIV agent containing the same” (priority 2000, dated 2013).
Where a SMILES comes first, the peptide text is derived from it. Bridges are numbered along the chain shown (N, C = ends). [ ]: non-standard residue; d: D form. 2Nal = N[C@@H](Cc1ccc2ccccc2c1)C(=O)O; Cit = NC(=O)NCCC[C@H](N)C(=O)O

What was measured:
Format in all cases: cell-based
[1] = tested on: virus-uninfected MT-4 cells; assay: Cytotoxicity Test I: virus-uninfected MT-4 cells, MTT method; conditions: for SI: CC50 (Test I)/EC50: selective index, MT-4 CC50 over anti-HIV EC50; for cytotoxicity in words, compared with conventional T134/T140: conclusion drawn from Table 3
Protocol: (§1) HIV-1 (IIIB) strain obtained from MOLT/HIV-1 (IIIB) cell previously infected by HIV-1 was used. The polypeptide of the present invention was added to MT-4 CD4^+ T cells infected by HIV in various kinds of concentrations, and a number of living cells after culturing at 37° C. for 5 days was determined by using a 3′-(4,5-dimethylthiazol-2-yl)-2,5-diphenyltetrazolinium bromide (MTT) method. Anti-HIV activity is shown by a concentration (EC50 value), where MT-4 cell death by HIV infection is inhibited by 50%. Cytotoxicity of the peptide according to the present invention was shown by a 50% survival concentration (Test I: CC50 value) by culturing virus-uninfected MT-4 cells with the polypeptide according to the present invention in various concentrations, and determining a number of living cells by the MTT method. Moreover, a number of living cells of human peripheral blood mononuclear cells (monocyte) (PBMC) was determined by trypan blue dyeing method, and shown by a 50% survival concentration (Test II: CC50 value). Respective ratios of the CC50 value and the EC50 value were shown as a selective index (SI). Obtained values were summarized in Table 3 using the conventionally known polypeptides T134 and T140, and an anti-HIV compound: 3′-azido-2′,3′-dideoxythymidine (AZT) used as a medicine as a control anti-HIV agent.

[2] = as above; conditions: human, MT-4 cells (virus-uninfected); virus-uninfected MT-4 cells, MTT method; read-out: CC50 (Test I), 50% survival concentration
Protocol: as §1

[3] = tested on: human peripheral blood mononuclear cells (PBMC); assay: Cytotoxicity Test II: human PBMC, trypan blue dyeing method; conditions: selective index, PBMC CC50 over anti-HIV EC50
[4] = as above; conditions: human PBMC, trypan blue dyeing method; read-out: CC50 (Test II), 50% survival concentration
HIV-1 (IIIB) strain = assay: Anti-HIV activity: inhibition of MT-4 cell death by HIV infection (MTT method); conditions: MT-4 CD4+ T cells infected by HIV-1 (IIIB), 37° C., 5 days, MTT; average of at least three measurements; read-out: EC50 (concentration where MT-4 cell death by HIV infection is inhibited by 50%)
Protocol: as §1

Compound | SI: CC50 (Test I)/EC50 [1] | CC50 [2] [µM] | SI: CC50 (Test II)/EC50 [3] | CC50 [4] [µM] | cytotoxicity in words, compared with conventional T134/T140 [1] | EC50 (HIV-1 (IIIB) strain) [µM]
NCCCC[C@@H]1NC(=O)[C@H](CCCN=C(N)N)NC(=O)[C@H](Cc2ccc(O)cc2)NC(=O)[C@@H](NC(=O)[C@H](Cc2ccc3ccccc3c2)NC(=O)[C@H](CCCN=C(N)N)NC(=O)[C@@H](N)CCCN=C(N)N)CSSC[C@@H](C(=O)N[C@@H](CCCN=C(N)N)C(=O)O)NC(=O)[C@H](CCCNC(N)=O)NC(=O)[C@H](CCCNC(N)=O)NC(=O)[C@H](Cc2ccc(O)cc2)NC(=O)[C@@H]2CCCN2C(=O)[C@@H](CCCCN)NC1=O [TC14006, H-Arg-Arg-Nal-Cys-Tyr-Arg-Lys-DLys-Pro-Tyr-Cit-Cit-Cys-Arg-OH] (H-RR[2Nal]CYRK[dK]PY[Cit][Cit]CR-OH; disulfide 4-13) | >5300 | > 80 | 20000 | 310 |  | 
NCCCC[C@H]1NC(=O)[C@H](CCCNC(N)=O)NC(=O)[C@H](CCCN=C(N)N)NC(=O)[C@H](Cc2ccc(O)cc2)NC(=O)[C@@H](NC(=O)[C@H](Cc2ccc3ccccc3c2)NC(=O)[C@H](CCCN=C(N)N)NC(=O)[C@@H](N)CCCN=C(N)N)CSSC[C@@H](C(=O)N[C@@H](CCCN=C(N)N)C(=O)O)NC(=O)[C@H](CCCNC(N)=O)NC(=O)[C@H](CCCN=C(N)N)NC(=O)[C@H](Cc2ccc(O)cc2)NC(=O)[C@@H]2CCCN2C1=O [TC14004, H-Arg-Arg-Nal-Cys-Tyr-Arg-Cit-DLys-Pro-Tyr-Arg-Cit-Cys-Arg-OH] (H-RR[2Nal]CYR[Cit][dK]PYR[Cit]CR-OH; disulfide 4-13) | >5000 | > 80 | 16000 | 270 |  | 
NCCCC[C@@H]1NC(=O)[C@H](CCCNC(N)=O)NC(=O)[C@H](Cc2ccc(O)cc2)NC(=O)[C@@H](NC(=O)[C@H](Cc2ccc3ccccc3c2)NC(=O)[C@H](CCCN=C(N)N)NC(=O)[C@@H](N)CCCN=C(N)N)CSSC[C@@H](C(=O)N[C@@H](CCCN=C(N)N)C(=O)O)NC(=O)[C@H](CCCNC(N)=O)NC(=O)[C@H](CCCN=C(N)N)NC(=O)[C@H](Cc2ccc(O)cc2)NC(=O)[C@@H]2CCCN2C(=O)[C@@H](CCCCN)NC1=O [TC14003, H-Arg-Arg-Nal-Cys-Tyr-Cit-Lys-DLys-Pro-Tyr-Arg-Cit-Cys-Arg-OH] (H-RR[2Nal]CY[Cit]K[dK]PYR[Cit]CR-OH; disulfide 4-13) | >29000 | > 80 | 160000 | 310 | cytotoxicity is markedly lowered | 
N=C(N)NCCC[C@H](NC(=O)[C@@H]1CSSC[C@H](NC(=O)[C@H](Cc2ccc3ccccc3c2)NC(=O)[C@H](CCCNC(=N)N)NC(=O)[C@@H](N)CCCNC(=N)N)C(=O)N[C@@H](Cc2ccc(O)cc2)C(=O)N[C@@H](CCCNC(=N)N)C(=O)N[C@@H](CCCCN)C(=O)N[C@H](CCCNC(N)=O)C(=O)N2CCC[C@H]2C(=O)N[C@@H](Cc2ccc(O)cc2)C(=O)N[C@@H](CCCNC(=N)N)C(=O)N[C@@H](CCCNC(N)=O)C(=O)N1)C(N)=O [TN14005, H-Arg-Arg-Nal-Cys-Tyr-Arg-Lys-DCit-Pro-Tyr-Arg-Cit-Cys-Arg-NH2] | >21000 | > 100 |  |  | cytotoxicity is markedly lowered | 0.0046
